Laboratory results: patent US6492373B2, “6-fluoro-1,4-dihydro-7-[4-(2-hydroxyiminoethyl)-1-piperazinyl]-4-oxoquinoline-3-carboxylic acid derivatives, their preparation and pharmaceutical compositions” (Pharmaceutical Industry Technology and Development Center, priority 2000, dated 2002)
In brackets after ≈: the same amount, converted by molar mass.

Tests used:
[1] = test system: Staphylococcus aureus, Methicillin Resistant (MRSA); experiment: In vitro antibacterial activity, MIC by broth dilution; type: cell-based; details: for MIC: Staphylococcus aureus, MRSA, 20-72 hours at 37° C., Mueller-Hinton broth
[2] = test system: Enterococcus faecalis, Vancomycin resistant, clinical isolates; experiment: In vitro antibacterial activity, MIC by broth dilution; type: cell-based; details: for MIC: Enterococcus faecalis, 20-72 hours at 37° C., Tryptic Soy Broth with 7% calf serum
[3] = test system: Escherichia coli; experiment: as above; type: cell-based; details: for MIC: Escherichia coli, 20-72 hours at 37° C., Nutrient Broth
[4] = test system: Proteus vulgaris; experiment: as above; type: cell-based; details: for MIC: Proteus vulgaris, 20-72 hours at 37° C., Mueller-Hinton broth
[5] = test system: Klebsiella pneumoniae; experiment: as above; type: cell-based
[6] = test system: Mycobacterium ranae; experiment: as above; type: cell-based; details: for MIC: Mycobacterium, 20-72 hours at 37° C., Brain Heart Infusion broth
[7] = test system: Pseudomonas aeruginosa; experiment: as above; type: cell-based; details: for MIC: Pseudomonas aeruginosa, 20-72 hours at 37° C., Nutrient Broth
[8] = test system: Staphylococcus pneumoniae, Erythromycin and Ampicillin resistant, clinical isolates; experiment: as above; type: cell-based; details: for MIC: Staphylococcus, 20-72 hours at 37° C., Tryptic Soy Broth with 7% calf serum
[9] = test system: NCI-H226 (non-small cell lung cancer); experiment: NCI in vitro tumor cell growth inhibition (GI50); type: cell-based; details: Homo sapiens
[10] = test system: 60 human tumor cell lines; experiment: NCI in vitro tumor cell growth inhibition, whole panel; type: cell-based; details: for GI50: Homo sapiens, Mean values over 60 cell lines tested; for Range: Ratio of GI50 value for the least sensitive cell to the most sensitive cell
[11] = test system: CCRF-CEM (leukemia); experiment: NCI in vitro tumor cell growth inhibition (GI50); type: cell-based; details: Homo sapiens
[12] = test system: SK-OV-4 (ovarian cancer); experiment: NCI in vitro tumor cell growth inhibition (GI50); type: cell-based; details: Homo sapiens
[13] = test system: HL-60 (TB) (leukemia); experiment: NCI in vitro tumor cell growth inhibition (GI50); type: cell-based; details: Homo sapiens
[14] = test system: HOP-62 (non-small cell lung cancer); experiment: NCI in vitro tumor cell growth inhibition (GI50); type: cell-based; details: Homo sapiens
[15] = test system: SK-OV-5 (ovarian cancer); experiment: NCI in vitro tumor cell growth inhibition (GI50); type: cell-based; details: Homo sapiens
[16] = test system: EKVX (non-small cell lung cancer); experiment: NCI in vitro tumor cell growth inhibition (GI50); type: cell-based; details: Homo sapiens
[17] = test system: RPMI-8226 (leukemia); experiment: NCI in vitro tumor cell growth inhibition (GI50); type: cell-based; details: Homo sapiens
[18] = test system: CAKI-1 (renal cancer); experiment: NCI in vitro tumor cell growth inhibition (GI50); type: cell-based; details: Homo sapiens
[19] = test system: UO-31 (renal cancer); experiment: NCI in vitro tumor cell growth inhibition (GI50); type: cell-based; details: Homo sapiens
[20] = test system: SK-OV-3 (ovarian cancer); experiment: NCI in vitro tumor cell growth inhibition (GI50); type: cell-based; details: Homo sapiens
[21] = test system: RXF-393 (renal cancer); experiment: NCI in vitro tumor cell growth inhibition (GI50); type: cell-based; details: Homo sapiens
[22] = 20-72 hours at 37° C., Nutrient Broth
[23] = Gentamicin, footnote b: MIC in μg/ml

| Compound | MIC [1] [µM] | melting point | MIC [2] [µM] | MIC [3] [µM] | MIC [4] [µM] | MIC, Kp [5, 22] [µM] | MIC [6] [µM] | MIC [7] [µM] | MIC [8] [µM] | other results |
| --- | --- | --- | --- | --- | --- | --- | --- | --- | --- | --- |
| CCn1cc(C(=O)O)c(=O)c2cc(F)c(N3CCN(CC(C)NN)CC3)cc21 (stereo not shown) [Exp. 1, 1-Ethyl-6-fluoro-7-[4-(2-hydrazinopropyl)-1-piperazinyl]-4-oxo-1,4-dihydroquinoline-3-carboxylic acid] | 4.01 (≈ 1.57 µg/mL) | 208 °C (dec.) | 16.1 (≈ 6.3 µg/mL) | 2.01 (≈ 0.787 µg/mL) | 2.01 (≈ 0.787 µg/mL) | 0.064 | 16.1 (≈ 6.3 µg/mL) | 16.1 (≈ 6.3 µg/mL) | 32.1 (≈ 12.6 µg/mL) | – |
| CCn1cc(C(=O)O)c(=O)c2cc(F)c(N3CCN(CC(C)=NO)CC3)cc21 [Exp. 2, 1-Ethyl-6-fluoro-7-[4-(2-hydroxyiminopropyl)-1-piperazinyl]-4-oxo-1,4-dihydroquinoline-3-carboxylic acid] | 0.51 (≈ 0.199 µg/mL) | 218 °C (dec.) | – | 0.51 (≈ 0.199 µg/mL) | 2 (≈ 0.781 µg/mL) | 0.13 | 32.1 (≈ 12.5 µg/mL) | 16 (≈ 6.25 µg/mL) | – | – |
| CCn1cc(C(=O)O)c(=O)c2cc(F)c(N3CCN(CC(=NO)c4ccccc4)CC3)cc21 [Exp. 3, 1-Ethyl-6-fluoro-4-oxo-7-[4-(2-hydroxyimino-2-phenylethyl)-1-piperazinyl]-1,4-dihydroquinoline-3-carboxylic acid] | 0.44 (≈ 0.199 µg/mL) | 203 °C (dec.) | – | 0.86 (≈ 0.389 µg/mL) | 3.45 (≈ 1.56 µg/mL) | 0.22 | 55.3 (≈ 25 µg/mL) | 13.8 (≈ 6.24 µg/mL) | – | – |
| CCn1cc(C(=O)O)c(=O)c2cc(F)c(N3CCN(CC(=O)c4ccccc4)CC3)c(F)c21 [Exp. 4, 1-Ethyl-6,8-difluoro-1,4-dihydro-4-oxo-7-(4-phenacyl-1-piperazinyl)-quinoline-3-carboxylic acid] | 1.71 (≈ 0.779 µg/mL) | 167 °C (dec.) | 13.7 (≈ 6.24 µg/mL) | 0.22 (≈ 0.1 µg/mL) | 0.22 (≈ 0.1 µg/mL) | 0.055 | 3.43 (≈ 1.56 µg/mL) | 0.86 (≈ 0.392 µg/mL) | 13.7 (≈ 6.24 µg/mL) | – |
| CCn1cc(C(=O)O)c(=O)c2cc(F)c(N3CCN(CC(=NO)c4ccc(OC)cc4)CC3)cc21 [Exp. 5, 1-Ethyl-6-fluoro-7-{4-[2-hydroxyimino-2-(4-methoxyphenyl)-ethyl]-1-piperazinyl}-4-oxo-1,4-dihydroquinoline-3-carboxylic acid] | 0.41 (≈ 0.198 µg/mL) | 221 °C (dec.) | 3.24 (≈ 1.56 µg/mL) | 1.62 (≈ 0.782 µg/mL) | 3.24 (≈ 1.56 µg/mL) | 0.027 | 104 (≈ 50.2 µg/mL) | 25.9 (≈ 12.5 µg/mL) | 13 (≈ 6.26 µg/mL) | GI50 [9]: 93.3 µM; GI50 [10]: 31.8 µM; Range [10]: 182; GI50 [11]: 24.4 µM; GI50 [12]: 55.1 µM; GI50 [13]: 17.7 µM; GI50 [14]: 52.3 µM; GI50 [15]: > 100 µM; GI50 [16]: 46.8 µM; GI50 [17]: 38.4 µM; GI50 [18]: 6.91 µM; GI50 [19]: 0.55 µM; GI50 [20]: 37.2 µM |
| CCn1cc(C(=O)O)c(=O)c2cc(F)c(N3CCN(CC(=NO)c4ccc(OC)cc4)CC3)c(F)c21 [Exp. 6, 1-Ethyl-6,8-difluoro-7-{4-[2-hydroxyimino-2-(4-methoxy-phenyl)ethyl]-1-piperazinyl}-4-oxo-1,4-dihydroquinoline-3-carboxylic acid] | 0.2 (≈ 0.1 µg/mL) | 176 °C (dec.) | 3.16 (≈ 1.58 µg/mL) | 0.4 (≈ 0.2 µg/mL) | 0.4 (≈ 0.2 µg/mL) | 0.10 | 6.34 (≈ 3.17 µg/mL) | 3.16 (≈ 1.58 µg/mL) | 6.34 (≈ 3.17 µg/mL) | – |
| CCn1cc(C(=O)O)c(=O)c2cc(F)c(N3CCN(CC(=NOC)c4ccc(OC)cc4)CC3)cc21 [Exp. 7, 1-Ethyl-6-fluoro-7-{4-[2-methoxyimino-2-(4-methoxyphenyl)-ethyl]-1-piperazinyl}-4-oxo-1,4-dihydroquinoline-3-carboxylic acid] | 1.57 (≈ 0.78 µg/mL) | 165 °C (dec.) | 12.6 (≈ 6.26 µg/mL) | 6.31 (≈ 3.13 µg/mL) | 6.31 (≈ 3.13 µg/mL) | 1.57 | 202 (≈ 100 µg/mL) | 202 (≈ 100 µg/mL) | 12.6 (≈ 6.26 µg/mL) | – |
| COc1ccc(C(CN2CCN(c3cc4c(cc3F)c(=O)c(C(=O)O)cn4-c3ccc([N+](=O)[O-])cc3F)CC2)=NO)cc1 [Exp. 8, 1-(4-Nitro-2-fluorophenyl)-6-fluoro-7-{4-[2-hydroxyimino-2-(4-methoxyphenyl)ethyl]-1-piperazinyl}-4-oxo-1,4-dihydroquinoline-3-carboxylic acid] | 0.34 (≈ 0.202 µg/mL) | – | 5.28 (≈ 3.13 µg/mL) | 1.32 (≈ 0.783 µg/mL) | > 169 | 0.08 | 21.1 (≈ 12.5 µg/mL) | 42.2 (≈ 25 µg/mL) | 1.32 (≈ 0.783 µg/mL) | – |
| CCn1cc(C(=O)O)c(=O)c2cc(F)c(N3CCN(CC(=NO)c4ccc(F)cc4)CC3)cc21 [Exp. 9, 1-Ethyl-6-fluoro-7-{4-[2-(4-fluorophenyl)-2-hydroxyimino-ethyl]-1-piperazinyl}-4-oxo-1,4-dihydro-3-quinolinecarboxylic acid] | – | – | – | – | – | – | – | – | – | GI50 [9]: 53.5 µM; GI50 [10]: 21.5 µM; Range [10]: 758; GI50 [11]: 10.5 µM; GI50 [12]: 39.4 µM; GI50 [13]: 0.98 µM; GI50 [14]: 42.6 µM; GI50 [15]: > 100 µM; GI50 [16]: 42.6 µM; GI50 [17]: 22.9 µM; GI50 [18]: 1.89 µM; GI50 [21]: 0.17 µM; GI50 [19]: 0.13 µM; GI50 [20]: 32 µM |
| CCn1cc(C(=O)O)c(=O)c2cc(F)c(N3CCN(CC(=NO)c4ccc(Cl)cc4)CC3)cc21 [Exp. 10, 1-Ethyl-6-fluoro-7-{4-[2-(4-chlorophenyl)-2-hydroxyimino-ethyl]-1-piperazinyl}-4-oxo-1,4-dihydro-3-quinolinecarboxylic acid] | – | – | – | – | – | – | – | – | – | GI50 [9]: 20.3 µM; GI50 [10]: 9.31 µM; Range [10]: 2291; GI50 [11]: 67.4 µM; GI50 [12]: 32.1 µM; GI50 [13]: 1.29 µM; GI50 [14]: 28.6 µM; GI50 [15]: 22.8 µM; GI50 [16]: 19.2 µM; GI50 [17]: 3.21 µM; GI50 [18]: 0.4 µM; GI50 [21]: 0.72 µM; GI50 [19]: 0.03 µM; GI50 [20]: 28.7 µM |
| CCn1cc(C(=O)O)c(=O)c2cc(F)c(N3CCN(C(=N)C(O)c4ccc(F)cc4)CC3)c(F)c21 (stereo not shown) [Exp. 11, 1-Ethyl-6,8-difluoro-7-{4-[2-(4-fluorophenyl)-2-hydroxy-iminoethyl]-1-piperazinyl}-4-oxo-1,4-dihydro-3-quinolinecarboxylic acid] | – | 201 °C (dec.) | – | – | – | – | – | – | – | – |
| COc1ccc(C(=O)CN2CCN(c3cc4c(cc3F)c(=O)c(C(=O)O)cn4-c3ccc(N)cc3F)CC2)cc1 [Exp. 12, 1-(4-amino-2-fluorophenyl)-6-fluoro-7-{4-[2-(4-methoxy-phenyl)-2-oxoethyl]-1-piperazinyl}-4-oxo-1,4-dihydroquinoline-3-carboxylic acid] | 0.55 (≈ 0.302 µg/mL) | 143 °C (dec.) | 5.47 (≈ 3 µg/mL) | 0.55 (≈ 0.302 µg/mL) | 18.2 (≈ 9.98 µg/mL) | 0.05 | 18.2 (≈ 9.98 µg/mL) | 5.74 (≈ 3.15 µg/mL) | 1.82 (≈ 0.998 µg/mL) | – |
| CCn1cc(C(=O)O)c(=O)c2cc(F)c(N3CCNCC3)cc21 [Norfloxacin, reference compound] | 4.89 (≈ 1.56 µg/mL) | – | 9.81 (≈ 3.13 µg/mL) | 0.63 (≈ 0.201 µg/mL) | 0.16 (≈ 0.0511 µg/mL) | 0.041 | 9.81 (≈ 3.13 µg/mL) | 1.22 (≈ 0.39 µg/mL) | 19.6 (≈ 6.26 µg/mL) | – |
| CC1COc2c(N3CCN(C)CC3)c(F)cc3c(=O)c(C(=O)O)cn1c23 (stereo not shown) [Ofloxacin, reference compound] | 1.08 (≈ 0.39 µg/mL) | – | 4.32 (≈ 1.56 µg/mL) | 0.28 (≈ 0.101 µg/mL) | 0.069 (≈ 0.0249 µg/mL) | 0.036 | 1.08 (≈ 0.39 µg/mL) | 2.16 (≈ 0.781 µg/mL) | 4.32 (≈ 1.56 µg/mL) | – |
| Gentamicin [reference compound] | – | – | – | – | – | – | – | – | – | MIC, MRSA [1, 23]: 0.78 µg/mL; MIC, EfVRE [2, 23]: 50 µg/mL; MIC, Ec [3, 23]: 0.20 µg/mL; MIC, Pv [4, 23]: 0.1 µg/mL; MIC, Kp [5, 23]: 0.2 µg/mL; MIC, Mr [6, 23]: 0.20 µg/mL; MIC, Pa [7, 23]: 0.39 µg/mL; MIC, SpEAR [8, 23]: 100 µg/mL |
